Data as given in PMC12554177 (2025).

Tests used:
[1] = test system: c-myc (DNA, G4) TGAGGGTGGGTAGGGTGGGTAA; test: 1H NMR imino titration; details: 2 mM K+ (KCl), 100 µM DNA, H2O/D2O 90/10, 25 °C
[2] = test system: KRAS (DNA, G4) GGGAGGGAGGGAAGGAGGGAGGGAGGGA; test: CD melting; details: 2 mM K+ (KCl); 10 mM Tris-HCl pH 7.4, 50 µM drug, 5 µM DNA
[3] = test system: labeled c-myc (DNA, G4) TGAGGGTGGGTAGGGTGGGTAA; test: FRET melting; details: 2 mM K+ (KCl); 2 µM HCQ, ~25 nM DNA
[4] = test system: c-myc (DNA, G4) TGAGGGTGGGTAGGGTGGGTAA; test: CD melting; details: 2 mM K+ (KCl); 10 mM Tris-HCl pH 7.4, 50 µM drug, 5 µM DNA
[5] = test system: c-kit (DNA, G4) CGGGCGGGCGCGAGGGAGGGG; test: CD melting; details: 2 mM K+ (KCl); 10 mM Tris-HCl pH 7.4, 50 µM drug, 5 µM DNA
[6] = test system: VEGF (DNA, G4) CCCGGGGCGGGCCGGGGGCGGGGTCCCGGCGGGGCGGAG; test: CD melting; details: 2 mM K+ (KCl); 10 mM Tris-HCl pH 7.4, 50 µM drug, 5 µM DNA
[7] = test system: bcl2 (DNA, G4) AGGGGCGGGCGCGGGAGGAAGGGGGCGGA; test: CD melting; details: 2 mM K+ (KCl); 10 mM Tris-HCl pH 7.4, 50 µM drug, 5 µM DNA
[8] = test system: Duplex (DNA, duplex) CAATCGGATCGAATTCGATCCGATTG; test: CD melting; details: 2 mM K+ (KCl); 10 mM Tris-HCl pH 7.4, 50 µM drug, 5 µM DNA

binding [1] | ΔTm [2] | Tm increase [3] | ΔTm [4] | binding ([1]; 5' end stacking) | ΔTm [5] | ΔTm [6] | ΔTm [7] | binding [8] | SMILES
yes | – | – | – | – | – | – | – | – | Nc1ccnc2cc(Cl)ccc12
– | 12 °C | ~ 12 °C | ~ 17 °C | yes | 11 °C | 9 °C | 7 °C | no | CCN(CCO)CCCC(C)Nc1ccnc2cc(Cl)ccc12 (stereo not shown)
– | – | – | – | – | – | – | – | no | CCN(CC)CCCC(C)Nc1ccnc2cc(Cl)ccc12 (stereo not shown)
